Where a name gives a salt, the structure may show the parent alone. Read-outs that look alike come from different tables or passages of the source.
Assays:
[1] = test system: p53+ and p53− variants of human breast cancer MCF-7 cells and A549 tumor cells; assay: Assay for cytotoxicity (J. Immunol. Methods 65:55-63), SPA-110 compared to hemiasterlin; assay type: cell-based; details: MCF-7 p53+ and p53− and A549 cells; FIGS. 5A and 5B; naturally occurring compound = hemiasterlin
Method: Cytotoxicity of SPA-110 compared to hemiasterlin as against p53+ and p53− variants of human breast cancer MCF-7 cells and A549 tumor cells was determined according to the methods described in J. Immunol. Methods 65:55-63 (1983).

[2] = test system: MCF-7 mp53− cells; assay: Assay for antimitotic activity, ELISA with mitosis-specific antibody TG-3; assay type: cell-based, human; details: 20 hours incubation, FIG. 6, naturally occurring compound = hemiasterlin
Method: Antimitotic activity is detected by enzyme-linked immunosorbent assay using a mitosis-specific antibody, TG-3 (from Albert Einstein College of Yeshiva University, Bronx, N.Y.; and see: PCT application published Jul. 4, 1996 under WO96/20218).
MCF-7 mp 53^− cells (expressing a dominant-negative p53 mutation as described in S. Fan, et al. […] Cancer Research 55:1649-1654) were cultured as monolayers in DMEM supplemented with 10% fetal bovine serum, 2 mM L-glutamine, 50 units/ml penicillin, 50 μg/ml streptomycin, 1 mM sodium pyruvate, MEM non-essential amino acids, 1 μg/ml bovine insulin, 1 μg/ml hydrocortisone, 1 ng/ml human epidermal growth factor, and 1 ng/ml β-estradiol at 37° C. in humidified 5% CO2. The cells were seeded at 10,000 cells per well of 96-well polystyrene tissue culture plates (Falcon) in a volume of 200 μl cell culture medium. The cells were allowed to grow for 24 hours and compounds were added at about 1 μg/ml or 10 μg/ml (from 1000-fold stocks in dimethylsulfoxide) and the cells were incubated for 20 hours. Nocodazole (Sigma) served as a positive control. […] 100 μl of 120 mM Na2HPO41 100 mM citric acid, pH 4.0 containing 0.5 mg/ml 2,2′-azino-bis(3-ethylbenzthiazoline-6-sulfonic acid) and 0.01% hydrogen peroxide was added for 1 hour at room temperature and the plates were read at 405 nm using a BioTek plate reader.

[3] = test system: human colon carcinoma LOVO; assay type: in vivo, Athymic nu/nu female mice; details: for % T/C day 7 / % T/C day 14 / % T/C day 21 / % T/C day 28: LOVO xenograft, SPA-110 intravenously, Vincristine intraperitoneally, p≦0.05; for % T/C day 7: day 7 post staging; for % T/C day 14: day 14 post staging; for % T/C day 21: day 21 post staging; for % T/C day 28: day 28 post staging
Method: The compound SPA-110 was evaluated in vivo using standard pharmacological test procedures which measure its ability to inhibit the growth of human tumor xenografts. The human colon carcinoma LOVO (American Type Culture Collection, Rockville, Md. #CCL-229) was grown in tissue culture in RPMI supplemented with 10% FBS. Athymic nu/nu female mice (Charles River, Wilmington, Mass.) were injected sub-cutaneously in the flank area with 7.0×10^6 LOVO cells. When tumors attained a mass of between 80 and 120 mg, the mice were randomized into treatment groups (day zero). Animals were treated intravenously once a day on days 1, 5, and 9 post staging (day zero) with 1 mg/kg/dose of SPA-110 prepared in 2.5% ethanol in saline or with saline as the vehicle control. Some animals were treated intraperitonealy once a day on days 1, 5 and 9 post staging with 1 mg/kg/dose Vincristine as a positive control. Tumor mass was determined every 7 days [(length×width^2)/2] for 28 days post staging. RTG or relative tumor growth (Mean tumor mass on days 7, 14, 21 and 28 divided by the mean tumor mass on day zero) was determined for each treatment group. % T/C was calculated as RTC (treated group) % RTC (vehicle control group)×100. Statistical analysis (Student-t-test) of log relative tumor growth was used to compare treated verses control group in each experiment. A p-value (p≦0.05), which indicates a statistically significant reduction in relative tumor growth, was obtained in each case. 5 of 5 animals treated at day 28 with SPA-110 survived. 9 of 10 animals treated at day 28 with vincristine survived.

**Q.** Which results are given for `CN[C@H](C(=O)NC(C(=O)N(C)C(/C=C(\C)C(=O)O)C(C)C)C(C)(C)C)C(C)(C)c1ccccc1` (stereo in doubt) [SPA-110, SPA 110-trifluoroacetate salt]?
**A.** Cytotoxicity compared to hemiasterlin [1]: more cytotoxic in some instances than the naturally occurring compound; Antimitotic activity compared to hemiasterlin [2]: considerably greater antimitotic activity than the naturally occurring compound; Animals surviving at day 28 ([3]; LOVO xenograft mice, day 28, 1 mg/kg/dose on days 1, 5, 9): 5 of 5; % T/C day 7 ([3]; 1 mg/kg/dose on days 1, 5, 9): 16%; % T/C day 14 ([3]; 1 mg/kg/dose on days 1, 5, 9): 18%; % T/C day 21 ([3]; 1 mg/kg/dose on days 1, 5, 9): 30%; % T/C day 28 ([3]; 1 mg/kg/dose on days 1, 5, 9): 47%

**Q.** With `CC[C@]1(O)C[C@H]2CN(CCc3c([nH]c4ccccc34)[C@@](C(=O)OC)(c3cc4c(cc3OC)N(C=O)[C@H]3[C@@](O)(C(=O)OC)[C@H](OC(C)=O)[C@]5(CC)C=CCN6CC[C@]43[C@@H]65)C2)C1` [Vincristine, reference compound] as the compound, how does the “% T/C day 7” value ([3]; 1 mg/kg/dose on days 1, 5, 9) read?
**A.** 34%

**Q.** And the “% T/C day 14” value ([3]; 1 mg/kg/dose on days 1, 5, 9)?
**A.** 37%

**Q.** And the “% T/C day 21” value ([3]; 1 mg/kg/dose on days 1, 5, 9)?
**A.** 44%

**Q.** What about the “% T/C day 28” value ([3]; 1 mg/kg/dose on days 1, 5, 9) of the same compound?
**A.** 47%

**Q.** And the “Animals surviving at day 28” value ([3]; female, athymic nu/nu, mouse, in vivo, 1 mg/kg, 28 days)?
**A.** 9 of 10

From patent publication US7579323B1, “Hemiasterlin analogs” (The University of British Columbia, priority 1997, dated 2009)
